Laboratory results reported in patent US20260215425A1, “NITRIFICATION INHIBITORS” (The University of Melbourne, priority 2022, published 2026).
Where two headings read alike, the source gives them in different places.

Key:
[1] = test system: N. europaea; experiment: standard nitrification inhibition assay (NO2- production, Griess); type: cell-based, Nitrosomonas europaea; settings: [NH4+]=3 mM, [inhibitor]=0.3 mM (10 mol %), pH 7.5, 30° C., 60 min
Description: Cells of N. multiformis and N. europaea were cultivated to the mid-exponential growth phase (OD600=0.1, [NO2^−] approximately 800 μM) and harvested by filtration onto 0.2 μm membrane filters (Mixed Cellulose Ester (MCE), Sigma Aldrich). The cells were washed with 2×100 mL of 0.1 M sodium phosphate buffer (NaPB), containing 0.2 mM MgSO4 at pH 7.5. The cells were washed from the filter paper by transferring it to a sterile 50 mL tube and resuspending in NaPB (15 mL), followed by 5 s of vortexing (Ratek, Australia) and 3 s of sonication (Vevor, Australia). […] Experiments were performed in triplicate.
In a deep 96-well plate (2 mL capacity), 980 μL of the bacterial inoculum (OD600=0.03) was added to the inhibitor (10 μL, 30 mmol L^−1 in Milli-Q water), the solutions were mixed thoroughly and pre-incubated in the dark for 5 minutes at 100 rpm and 30° C. (NH4)2SO4 (10 μL, 150 mM, from a prepared sterile solution containing 19.8 g L^−1 (NH4)2SO4 in Milli-Q water) was then added using a multi-channel pipette. The plate was covered with a with an O2 permeable membrane to ensure aeration (Breathe-Easy® sealing membrane, Sigma Aldrich) and incubated in a temperature-regulated rotary incubator (Ratek, Australia) in the dark for 60 minutes at 30° C. and 100 rpm. An aliquot of the reaction solution ([…]) was transferred to a 96-well spectrophotometric plate to which 50 µL of Griess reagent was added. The colour was allowed to develop for 15 minutes at room temperature, and the absorbance was measured at 540 nm. Each assay was accompanied by control treatments to determine the 0% and 100% NO2 signal. The percentage inhibition was calculated according to eqn. 1 from the NO2 production of the cells in NaPB (i) without additive (‘untreated cells’: 0% signal), (ii) with [NH4^+]=3 mM (‘uninhibited’ cells: 100% signal) and (iii) with [NH4^+]=3 mM and [inhibitor]=0.3 mM and 0.03 mM (10 mol % and 1 mol % of [NH4^+], ‘inhibited cells’). Experiments were performed in triplicate.

[2] = test system: hydroxylamine oxireductase (HOA); experiment: standard nitrification inhibition assay with NH2OH as substrate; type: cell-based, N. multiformis; settings: substrate NH2OH 3 mM, [inhibitor]=0.3 mM, pH 7.5, 30° C., 60 min
[3] = test system: N. europaea; experiment: mode of inhibition, Michaelis-Menten kinetics of NO2- production; type: cell-based; settings: for Km: read-out: Km(app)
Description: These studies were performed using a modified procedure of that described earlier. In FIG. 4a, the rate of NO2^− production was measured as a function of [NH4^+] to determine whether the inhibitor follows Michaelis-Menten kinetics. The [NH4^+] was 0.003 mM, 0.03 mM, 0.5 mM, 1.5 mM, 3 mM, 10 mM, 15 mM and 30 mM. [4-MPT] remained constant at 0.3 mM. The Michaelis-Menten plots show saturation kinetics, where the NO2 production became independent of [NH4^+] beyond 0.5 mmol L^−1.
Mode of inhibition studies with remaining inhibitors N001, N003, N014 and N018 were conducted as a proof of concept.

[4] = test system: N. europaea; experiment: acute toxicity test (LIVE/DEAD stain); type: cell-based; settings: [4-MPT]=1.5 mM (50 mol % of [NH4+]), [NH4+]=3 mM, 12 h
Description: Cells were harvested using the ‘standard cell harvesting protocol’. The bacteria solution was adjusted to an OD600=0.8 (100 μg/L protein). The solution was divided into 1 mL aliquots and transferred to a 24-well tissue culture plate (Greiner Cellstar®, polystyrene Tissue Culture treated). Each well contained 980 μL of bacterial solution, 10 μL of a 150 mM aqueous (NH4)2SO4 solution and 10 μL of a 150 mM inhibitor solution. […] After incubation, cells were transferred into a centrifuge tube and sedimented at 10,000 rpm for 10 minutes. The supernatant was discarded, and cells were re-suspended in 1 mL NaPB. A 5 μL aliquot was transferred into a 96-well plate and the bacterial stain (LIVE/DEAD™ BacLight™ Bacterial Viability Kit for microscopy, ThermoFisher Scientific) was added following the manufacturer's guideline. 10 μL of the solution was transferred onto a microscopic slide (Fisher Scientific, Australia, microscope slides 7.6 cm×2.5 cm (L×W), thickness 1-1.2 mm). Ten images were taken per treatment with a fluorescence microscope (Leica DM6000, Germany) using the red filter setting (excitation:
575/30 nm (dichromatic) DC: 600; emission: 635/40 nm) and green channel using filter setting (excitation: 500/20 nm DC: 515; emission: 535/30 nm) to detect dead and live cells respectively. The percentage of live and dead cells was calculated via eqns.

[5] = inhibitor concentration 37.5 μM
[6] = inhibitor concentration 75.0 μM

**Q.** Which “% Inhibition NE” value [1] does the source give for `C#CCn1cc(C)nn1` [Compound 4-MPT, 4-Methyl-1-(prop-2-yn-1yl)-1H-1,2,3-triazole] here?
**A.** 77%

**Q.** What about the “% Inhibition NM” value [2] of the same compound?
**A.** 33 ± 4%

**Q.** And the mode of inhibition ([3]; NO2- production against [NH4+])?
**A.** non-competitive inhibition mode

**Q.** And the “Vmax(app)” value [3, 5]?
**A.** 52.7 ± 2.0 μmol (mg protein min)^−1

**Q.** What about the Km [3, 5] of the same compound?
**A.** 30.2 ± 0.3 µM

**Q.** What about the “Vmax(app)” value [3, 6] of the same compound?
**A.** 39.2 ± 2.0 μmol (mg protein min)^−1

**Q.** What about the Km [3, 6] of the same compound?
**A.** 23.7 ± 4 µM

**Q.** And the “% Dead” value [4]?
**A.** 25 ± 8%

**Q.** What about the “% Live” value [4] of the same compound?
**A.** 75 ± 8%
